{P} = phosphate
Assays:
[1] = system: S91 mouse melanoma cells; assay: Melanin content of S91 melanoma cells; format: cell-based; settings: 100 μM
Experimental: Cultures of S91 mouse melanoma cells (100,000 cells/38 cm^2) were treated with 100 μM pTpT or phosphorothioate pTpT (pTspT) (FIG. 4) or 40 μM 11mer-1 or the phosphorothioate 11mer-1 (11mer-1-S) (FIG. 5) for 6 days and were then collected, counted and assayed for melanin content.
(§1) Duplicate cultures of S91 cells (100,000 cells/39 cm^2) were either sham-irradiated or irradiated with 5 mJ/cm^2 solar-simulated light from a 1 kW xenon arc solar-simulator (XMN 1000-21, Optical Radiation, Azuza, Calif.) metered at 285±5 nm using a research radiometer (model IL1700A, International Light, Newburyport, Mass.). Two sham-irradiated plates were then supplemented with 100 μM pTspT and two irradiated cultures were similarly treated with pTspT. After one week, cells were collected, counted and analyzed for melanin content by dissolving the cell pellets in 1 N NaOH and measuring the optical density at 475 nm. […] However, this response was blocked by the addition of pTspT (FIG. 6). In addition, the constitutive pigmentation of these cells was reduced by the pTspT in the sham-irradiated cultures, similar to the data presented in FIGS. 4 and 5.

[2] = system: T-oligo-induced total p53, p21, p53 serine 15 phosphorylation; assay: PARP inhibitor pretreatment and T-oligo responses, western blot; format: cell-based; settings: fibroblasts, 40 μM T-oligo, 48 hours; 3AB 2.5 mM or IQ 100 μM
Experimental: To investigate the role of PARPs in responses to T-oligo, fibroblasts were pretreated with one of two different PARP inhibitors, 3-aminobenzamide (3AB, 2.5 mM) or […] (IQ, 100 μM) for 2 hours before addition of 40 μM T-oligo or an equal amount of diluent as a control. An additional dose of each inhibitor was given to the cells 4 hours after addition of the T-oligo or diluent (D). Fibroblasts were treated with 3AB and T-oligo, then collected 48 hours later for western blot. T-oligo-induced upregulation of total p53, p21, phosphorylation of p53 serine 15 (indicating p53 activation) were all reduced in the presence of 3AB (FIG. 17A).

[3] = system: p53 serine 15 phosphorylation and p21 induction in response to TRF2^DN; assay: PARP inhibitors and response to TRF2^DN, western analysis; format: cell-based; settings: neonatal fibroblasts, AdTRF2DN, 3 days; 3AB 2.5 mM or IQ 100 μM
Experimental: The graphs show densitometric readings of the western blots, with diluent control set at 100%. FIG. 9f: Lane 1, diluent, GFP; lane 2, diluent TRF2DN; lane 3, 3AB, GFP; lane 4, 3AB, TRF2DN; lane 5, IQ, GFP; lane 6, IQ, TRF2DN.
Neonatal fibroblasts were treated with AdTRF2DN or AdGFP as a negative control. Two hours before infection, cells were treated with either diluent 3AB (2.5 mM) or IQ (100 μM). After 3 days cells were collected for western analysis for the c-myc-tagged TRF2DN (to confirm infection), p53 serine 15 phosphorylation and p21 induction.

[4] = system: HT-1080 human fibrosarcoma cells; assay: Clonogenic assay; format: cell-based; settings: HT-1080, 40 μM for one week, then replated 2 weeks without treatment
Experimental: Cells were treated with diluent, 40 μM T-oligo or complementary oligo for one week, and then assayed. FIG. 15a: Appearance of stained dishes. FIG. 15b: Quantification of clonogenic capacity. Colonies of triplicate cultures were counted and plotted as percentage of diluent treated control.
Human fibrosarcoma cells were treated with diluent alone, 40 μM T-oligo or 40 μM complementary oligo for one week and were then trypsinized and counted. 300 cells were seeded into 60 mm culture dishes in triplicate and then incubated in complete medium for 2 weeks with medium changed twice per week. Subsequently, the cells were fixed for 5 min in 100% methanol. The methanol was then removed and the culture dishes were rinsed briefly with water. The colonies were stained for 10 min in 4% (w/v) methylene blue solution in PBS, washed once again with water, and then counted.
To determine the long-term effect of T-oligo treatment on cell growth, HT-1080 human fibrosarcoma cells were treated with either diluent alone, 40 μM T-oligo or 40 μM complementary control oligo for one week and then an equal number of cells were replated and medium was changed twice per week for 2 weeks with no further treatment, and then stained with methylene blue (FIG. 15a).

[5] = system: HT-1080 fibrosarcoma cells; assay: BrdU incorporation assay, HT-1080 cells; format: cell-based, human; settings: HT-1080 cells, 40 μM, 4 days
Experimental: (§2) FIG. 13a: Exposure to T-oligo increases SA-β-Gal activity. HT-1080 cells were treated for 4 days with diluent alone or 40 μM T-oligo or the complementary control oligo, then stained and assayed for SA-β-Gal activity. FIG. 13b: Quantitative analysis of SA-β-Gal positive cells. Cells expressing SA-β-Gal activity were counted and presented as percentage of total cells in the cultures. Averages and standard deviations were calculated from 3 representative fields from each of 3 independent experiments. FIG. 13c: Effect of T-oligo on cell proliferation. Cells were treated for 4 days as in FIG. 12 and assayed for DNA synthesis by BrdU incorporation. FIG. 13d: Quantitative analysis of BrdU incorporation. Dark black nuclei indicate BrdU incorporated into nuclear DNA. BrdU positive cells were calculated and presented as percentage of total cells in the cultures. Averages and standard deviations were calculated from 3 representative fields from each of 3 independent experiments. FIG. 13e: Effect of T-oligo on pRb phosphorylation. Cells were treated as in FIG. 13a and were then collected for protein analysis by western blot using 30 μg total protein and probed for pRb-ser780*, ser795* and ser807/811* (pRb phosphorylated at serine 780, serine 795 and serine 807/811 respectively). Lanes D, T and C contain protein samples from cells treated with diluent, T-oligo and complementary oligo respectively. β-actin was used as a loading control.
Parallel cultures were treated as described in FIG. 13a. Cells were then washed once with PBS and refed with complete medium without additional treatment for 24 hours or 48 hours. FIG. 14a: SA-β-Gal activity. […]
HT-1080 fibrosarcoma cells cultured on Permanox chamber slides were treated with diluent, 40 μM T-oligo or 40 μM complementary oligo for 4 days and DNA synthesis was assayed using 5-bromo-2′-deoxy-uridine (BrdU) Labeling and Detection Kit II (Roche Molecular Biochemicals, Indianapolis, Ind.) following the protocol supplied by the manufacturer. […] After incubation with anti-mouse-Ig-alkaline phosphatase, the color reaction was detected by light microscopy. […]

[6] = system: human fibrosarcoma HT-1080 cells; assay: SA-β-Gal staining, HT-1080 cells; format: cell-based; settings: HT-1080 cells, 40 μM, 4 days
Experimental: as §2
Parallel cultures were treated as described in FIG. 13a. Cells were then washed once with PBS and refed with complete medium without additional treatment for 24 hours or 48 hours. FIG. 14a: SA-β-Gal activity. Cells were stained for SA-β-Gal activity. […]
TRF2^DN has been reported to induce a senescent phenotype in human fibrosarcoma HT-1080 cells. To determine whether exposure to the telomere 3′ overhang DNA (T-oligo) also induces senescence in these cells, HT-1080 cells (American Type Culture Collection; Manassas, Va.) were treated with either diluent alone, T-oligo or the complementary oligo as a control, for 4 days and then assessed for SA-β-Gal activity. […]

[7] = system: p95 phosphorylated at serine 343; assay: p95 serine 343 phosphorylation after tankyrase siRNA, western blotting and densitometry; format: cell-based, human; settings: 24 hours
Experimental: Paired cultures of human fibroblasts were treated once with tankyrase siRNA, with a non-specific siRNA (control) or were mock transfected as a second control. […] After an additional 24 hours, cells were collected and processed for western blotting using an antibody specific for p95 phosphorylated at serine 343, indicating p95 modification by activated ATM kinase. The film was then subjected to densitometry and the diluent control for each group of cells was set at 1.0 in arbitrary units (FIG. 19). As expected, in cells with normal tankyrase levels the T-oligo treated cells had twice the amount of phosphorylated p95, while the control oligo-treated or diluent-treated cells had only a 30-40% increase.

[8] = system: HT-1080 fibrosarcoma cells; assay: Telomere length (mean TRF length) assay; format: cell-based, human; settings: HT-1080 cells, 40 μM, 4 days
Experimental: Cells were treated as described in FIG. 13a. Lanes 1, 2, 3 contain genomic DNA from cells treated with diluent (D), T-oligo (T), or complementary oligo (C). Lanes 4 and 5 contain high (H) molecular and low (L) molecular weight standard telomeric DNA.
HT-1080 fibrosarcoma cells were treated with diluent, 40 μM T-oligo or 40 μM complementary oligo for 4 days and then the genomic DNA was isolated using the DNeasy Tissue Kit (Qiagen, Valencia, Calif.). Telomere length was determined using the Telo TTAGGG Telomere Length Assay (Roche Molecular Biochemicals, Indianapolis, Ind.) following the protocol supplied by the manufacturer. […] Terminal restriction fragments (TRF) were detected by chemiluminescence. The mean TRF length was calculated by scanning the exposed X-ray film with a densitometer and calculated as previously described (Harley et al. [1990] Telomeres shorten during ageing of human fibroblasts. Nature 345, 458-460).
To determine the affect of T-oligos on the mean telomere length (MTL) in HT-1080 cells, cells were analyzed after treatment with T-oligo for 4 days which corresponded to the time that the senescent phenotype was readily observed. […] The less than 100 bp difference in calculated MTL is within the range of experimental variation and is not significant.

[9] = system: S91 cells; assay: UV-induced melanogenesis in S91 cells; format: cell-based, mouse; settings: 5 mJ/cm^2 solar-simulated light, 100 μM, one week
Experimental: as §1

## pTpT
[1]; 6 days
  melanogenesis (melanin content): stimulated melanogenesis

## NC(=O)c1cccc(N)c1 [Oligonucleotide 3AB, 3-aminobenzamide]
[2]
  T-oligo-induced phosphorylation of p53 serine 15: reduced
  T-oligo-induced upregulation of p21: reduced
  T-oligo-induced upregulation of total p53: reduced
[3]
  p21 induction in response to TRF2^DN: reduced
  p53 phosphorylation in response to TRF2^DN: reduced

## pCTAACCCTAAC (DNA, 5' {P}, backbone and methylation of C not given here; listed as Homo sapiens) [Oligonucleotide 11mer-2, reference compound]
[4]
  clonogenic capacity: 90.5±9.4 % of diluent treated control
[5]
  BrdU incorporation (BrdU positive cells): 85±10%
[6]
  SA-β-Gal positive cells: 6±3%
[7]; human fibroblasts with normal tankyrase levels
  increase in phosphorylated p95: 30-40%
[7]; tankyrase knockdown group (tankyrase siRNA)
  level of p95 phosphorylation (densitometry, diluent control set at 1.0): 1.3 arbitrary units
[8]
  mean telomere length (MTL): 5.51 kb

## pTspT
[1]; 6 days
  constitutive pigmentation: reduced the constitutive pigmentation
  melanogenesis (melanin content): did not
[1]; sham-irradiated, one week
  constitutive pigmentation: reduced
[9]
  UV-induced doubling of melanin content: blocked

Reference: patent US20060269924A1, “Modulation of telomere-initiated cell signaling” (TRUSTEES OF BOSTON UNIVERSITY, priority 2003, published 2006)
